Reference: PubChem BioAssay (NCI)
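Compound exposure: 48 hours, 5 concentrations, 96-well plates. TGI denotes the concentration required for complete inhibition of growth.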

Legend:
Assay in all cases: growth of human tumour cells (NCI), 48 h
[1] = system: 786-0 renal
[2] = system: A498 renal
[3] = system: A549 NSCLC
[4] = system: ACHN renal
[5] = system: BT-549 breast
[6] = system: CAKI-1 renal
[7] = system: CCRF-CEM leukemia
[8] = system: COLO 205 colon
[9] = system: DU-145 prostate
[10] = system: EKVX NSCLC
[11] = system: HCT-116 colon
[12] = system: HCT-15 colon
[13] = system: HL-60(TB) leukemia
[14] = system: HOP-92 NSCLC
[15] = system: HS 578T breast
[16] = system: HT29 colon
[17] = system: IGROV1 ovarian
[18] = system: K-562 leukemia
[19] = system: KM12 colon
[20] = system: LOX IMVI melanoma
[21] = system: M14 melanoma
[22] = system: MCF7 breast
[23] = system: MDA-MB-231 breast
[24] = system: MDA-MB-435
[25] = system: MDA-N
[26] = system: MOLT-4 leukemia
[27] = system: NCI-H226 lung
[28] = system: NCI-H23 lung
[29] = system: NCI-H460 lung
[30] = system: OVCAR-3 ovarian
[31] = system: OVCAR-5 ovarian
[32] = system: OVCAR-8 ovarian
[33] = system: PC-3 prostate
[34] = system: RPMI-8226 leukemia
[35] = system: RXF 393 renal
[36] = system: SF-268 CNS
[37] = system: SF-295 CNS
[38] = system: SF-539 CNS
[39] = system: SK-MEL-5 melanoma
[40] = system: SK-OV-3 ovarian
[41] = system: SNB-19 CNS
[42] = system: SNB-75 CNS
[43] = system: SR leukemia
[44] = system: SW-620 colon
[45] = system: T-47D breast
[46] = system: TK-10 renal
[47] = system: U251 CNS
[48] = system: UACC-257 melanoma
[49] = system: UACC-62 melanoma
[50] = system: UO-31 renal
[51] = system: HCC-2998 colon
[52] = system: HOP-62 NSCLC
[53] = system: MALME-3M melanoma
[54] = system: NCI-H522 lung
[55] = system: NCI/ADR-RES ovarian
[56] = system: OVCAR-4 ovarian
[57] = system: SK-MEL-2 melanoma
[58] = system: SK-MEL-28 melanoma
[59] = system: SN12C renal

`CC(=O)OCC(C)(COC(C)=O)N1C(=O)C2C3c4ccccc4C(c4ccccc43)C2C1=O` (stereo not given) was tested, and the TGI [1] was greater than 100 µM, the TGI [2] was greater than 100 µM and the TGI [3] was greater than 100 µM. For the same compound, the TGI [4] was greater than 100 µM, the TGI [5] was greater than 100 µM and the TGI [6] was greater than 100 µM. The TGI [7] was greater than 100 µM, the TGI [8] was greater than 100 µM and the TGI [9] was greater than 100 µM. For the same compound, the TGI [10] was greater than 100 µM, the TGI [11] was greater than 100 µM and the TGI [12] was greater than 100 µM. The TGI [13] was greater than 100 µM, the TGI [14] was greater than 100 µM and the TGI [15] was greater than 100 µM. It also gave a TGI [16] greater than 100 µM, a TGI [17] greater than 100 µM and a TGI [18] greater than 100 µM. For the same compound, the TGI [19] was greater than 100 µM, the TGI [20] was greater than 100 µM and the TGI [21] was greater than 100 µM. For the same compound, the TGI [22] was greater than 100 µM, the TGI [23] was greater than 100 µM and the TGI [24] was greater than 100 µM. For the same compound, the TGI [25] was greater than 100 µM, the TGI [26] was greater than 100 µM and the TGI [27] was greater than 100 µM. For the same compound, the TGI [28] was greater than 100 µM, the TGI [29] was greater than 100 µM and the TGI [30] was greater than 100 µM. The TGI [31] was greater than 100 µM, the TGI [32] was greater than 100 µM and the TGI [33] was greater than 100 µM. It also gave a TGI [34] greater than 100 µM, a TGI [35] greater than 100 µM and a TGI [36] greater than 100 µM. It also gave a TGI [37] greater than 100 µM, a TGI [38] greater than 100 µM and a TGI [39] greater than 100 µM. The TGI [40] was greater than 100 µM, the TGI [41] was greater than 100 µM and the TGI [42] was greater than 100 µM. For the same compound, the TGI [43] was greater than 100 µM, the TGI [44] was greater than 100 µM and the TGI [45] was greater than 100 µM. It also gave a TGI [46] greater than 100 µM, a TGI [47] greater than 100 µM and a TGI [48] greater than 100 µM. For the same compound, the TGI [49] was greater than 100 µM and the TGI [50] was greater than 100 µM.

`O=S(=O)(SC1=NCCN1)c1cccc2ccccc12` was tested, and the TGI [1] was 74.9 µM, the TGI [2] was 89.7 µM and the TGI [3] was 67.8 µM. The TGI [4] was 70.5 µM, the TGI [5] was 76 µM and the TGI [6] was 59.9 µM. The TGI [7] was greater than 100 µM, the TGI [8] was 34.4 µM and the TGI [9] was greater than 100 µM. The TGI [10] was greater than 100 µM, the TGI [51] was greater than 10 µM and the TGI [11] was greater than 100 µM. The TGI [12] was greater than 100 µM, the TGI [13] was greater than 10 µM and the TGI [52] was greater than 100 µM. The TGI [14] was greater than 100 µM, the TGI [16] was greater than 100 µM and the TGI [17] was 89.9 µM. The TGI [18] was 63.5 µM, the TGI [19] was 45.1 µM and the TGI [20] was greater than 100 µM. The TGI [21] was greater than 100 µM, the TGI [53] was greater than 100 µM and the TGI [22] was greater than 100 µM. It also gave a TGI [23] of 45.6 µM, a TGI [24] greater than 100 µM and a TGI [25] of 39.4 µM. For the same compound, the TGI [26] was 95.9 µM, the TGI [27] was 73 µM and the TGI [28] was 91.2 µM. The TGI [29] was 84.3 µM, the TGI [54] was 36.2 µM and the TGI [55] was greater than 100 µM. It also gave a TGI [30] greater than 100 µM, a TGI [56] greater than 100 µM and a TGI [31] of 93.5 µM. The TGI [32] was greater than 100 µM, the TGI [33] was greater than 100 µM and the TGI [34] was 66.6 µM. The TGI [35] was 71.8 µM, the TGI [37] was 51.2 µM and the TGI [38] was 49.6 µM. For the same compound, the TGI [57] was greater than 100 µM, the TGI [58] was greater than 100 µM and the TGI [39] was 43 µM. For the same compound, the TGI [40] was 45.7 µM, the TGI [59] was 48.1 µM and the TGI [41] was 83.7 µM. It also gave a TGI [42] of 46 µM, a TGI [43] greater than 10 µM and a TGI [44] greater than 100 µM. It also gave a TGI [47] greater than 100 µM, a TGI [48] greater than 100 µM and a TGI [49] greater than 100 µM. For the same compound, the TGI [50] was greater than 100 µM.
